Patent US9023816B2, “Bioactive alkaloid compositions and their medical uses” (Asiros A/S, priority 2013, dated 2015)
Where two headings read alike, the source gives them in different places.

Assays:
[1] = tested on: BKS Cg-Lepr db/Lepr db mice; test: Hypoglycemic effect in BKS Cg-Lepr db/Lepr db mice (NIDDM model); format: in vivo, mouse; settings: 300 mg/kg oral daily, day 14 post dosing
Description: Male non-insulin dependent diabetic mellitus (NIDDM) mice (BKS Cg-Lepr db/Lepr db) weighing 50+/−5 g were used at age of 12-13 weeks. A daily oral dose of 2000 mg/kg of RAP4 corresponding to corresponding to 112 μg/kg of Ribetril A and 492 μg/kg total Ribetrils as well as 240 μg/kg total Glucoindols was administered orally at a dosing volume of 10 mL/kg to 12 animals for a total of 14 consecutive days. The positive control of metformin (300 mg/kg) and vehicle (2% Tween 80) were each administered orally at a dosing volume of 10 mL/kg to groups of 6 animals once daily for a total of 14 consecutive days. Serum glucose levels were measured by means of an automated analyzer (TBA-120FR, Toshiba) and serum insulin by ELISA at zero min (pre-treatment) on Day 1, and at 90 min after the daily dosing (post-treatment) on Day 7 and Day 14.

[2] = molecular target: T1, phosphodiesterase 4 (PDE4), PDE4A1A (Homo sapiens, UniProt P27815); test: PDE4A1A Assay Kit, fluorescence polarization; format: biochemical
T1 construct: purchased BSP Bioscience 60340
Description: Inhibition of PDE4 blocks hydrolysis of cAMP, thereby increasing levels of cAMP. The PDE4A1A Assay Kit is designed for identification of PDE4A1A inhibitors using fluorescence polarization. The assay is based on the binding of fluorescent AMP generated by PDE4A1A to the binding agent.
The assay was performed according to the protocol of the PDE4A1A assay provided by BSP Bioscience [BSP Bioscience, Data sheet PDE4A1A Assay Kit, Catalog #60340].
(§1) A fluorescence plate reader (Appliskan, Thermo Scientific) was used to detect fluorescence emission signals according to the following parameters:
(§2) Selected alkaloids of the invention prepared in example 1 were tested in 5 times dilutions to establish the 50% inhibitory concentration (IC-50).

[3] = molecular target: T2, phosphodiesterase 5A (PDE5) (Homo sapiens, UniProt O76074); test: PDE5A Assay Kit, fluorescence polarization; format: biochemical
T2 construct: purchased BSP Bioscience 60350
Description: Inhibition of PDE5 blocks hydrolysis of cGMP, thereby increasing levels of cGMP. The PDE5A Assay Kit is designed for identification of PDE5A inhibitors using fluorescence polarization. The assay is based on the binding of a fluorescent nucleotide monophosphate generated by PDE5A to the binding agent.
The assay was performed according to the protocol of the PDE5A assay provided by BSP Bioscience [BSP Bioscience, Data sheet PDE5A Assay Kit, Catalog #60350].
as §1, §2

IkappaB kinase β (IKK-β) = molecular target: T3, IkappaB kinase β (IKK-β) (Homo sapiens, UniProt O14920); test: IKK-β inhibition, Z'-LYTE Kinase Assay Kit Ser/Thr 5 Peptide (FRET); format: biochemical
T3 construct: purchased Invitrogen
T3 sequence (O14920 1-756): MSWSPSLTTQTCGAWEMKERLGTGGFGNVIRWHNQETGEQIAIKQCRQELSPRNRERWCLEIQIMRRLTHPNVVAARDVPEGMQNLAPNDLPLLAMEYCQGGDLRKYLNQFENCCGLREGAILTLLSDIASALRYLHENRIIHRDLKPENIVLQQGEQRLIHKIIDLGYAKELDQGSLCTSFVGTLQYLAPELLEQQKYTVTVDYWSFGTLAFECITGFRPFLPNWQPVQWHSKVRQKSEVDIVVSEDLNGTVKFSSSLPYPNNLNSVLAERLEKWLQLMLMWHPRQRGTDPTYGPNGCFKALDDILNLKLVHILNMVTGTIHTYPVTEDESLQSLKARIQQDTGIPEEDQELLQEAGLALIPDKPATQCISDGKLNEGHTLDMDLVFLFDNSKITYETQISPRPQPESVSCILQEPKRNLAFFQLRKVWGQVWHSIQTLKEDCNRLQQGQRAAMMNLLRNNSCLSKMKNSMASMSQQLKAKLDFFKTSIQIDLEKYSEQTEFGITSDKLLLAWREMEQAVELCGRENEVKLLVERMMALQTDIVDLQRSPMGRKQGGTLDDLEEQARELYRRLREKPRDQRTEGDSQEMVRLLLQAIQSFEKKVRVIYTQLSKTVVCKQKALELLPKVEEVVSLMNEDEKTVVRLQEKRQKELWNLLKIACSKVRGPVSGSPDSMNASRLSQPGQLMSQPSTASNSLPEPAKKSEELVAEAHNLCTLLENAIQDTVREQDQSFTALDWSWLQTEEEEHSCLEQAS
Description: IKK-β phosphorylates the inhibitory IκB protein associated with NF-κB. Phosphorylation results in the dissociation of IκB from NF-κB, allowing NF-κB to migrate into the cell nucleus where it can activate the transcription of at least 150 genes. The Z9-LYTE™ Kinase Assay Kit—Ser/Thr 5 Peptide is designed to screen for potential IKK-β inhibitory effect using fluorescence resonance energy transfer (FRET) between coumarin and fluorescein for detection by a fluorometer.
The assay was performed according to Z9-LYTE™ KINASE ASSAY KIT—SER/THR 5 PEPTIDE protocol provided by Invitrogen [Invitrogen, Z′-LYTE™ Kinase Assay Kit—Ser/Thr 5 Peptide Protocol, O-062187-r1 US 0405]. Based on the IKK-β certificate of the kit, a kinase concentration of 500 ng/ml was chosen. Km for ATP 9.4 μM was chosen according to an optimization for the LanthaScreen™ kinase assay [http://tools.invitrogen.com/content/sfs/manuals/IKBKB_%28IKK_beta %29_LanthaScreen_Activity.pdf].
as §1, §2

[4] = tested on: hyperlipidemic guinea pigs; test: Hypocholesterolemic effect in hyperlipidemic guinea pigs induced by high fat diet; format: in vivo, guinea pig; settings: 10 mg/kg oral once daily, 28 days
Description: Male Dunkin-Hartley guinea pigs weighing 300+/−30 g were acclimated one week before the in-life phase of the experiment. The study diet (Research Diets Inc, New Brunswick, N.J., USA) contained 15% corn oil and 0.25% cholesterol. A daily oral dose of 2000 mg/kg of RAP2 corresponding 9 μg/kg of Ribetril A and 82 μg/kg total Ribetrils as well as 632 μg/kg total Glucoindols was administered orally at a dosing volume of 10 mL/kg. A daily oral dose of 2000 mg/kg of RAP4 corresponding to 112 μg/kg of Ribetril A and 492 μg/kg total Ribetrils as well as 240 μg/kg total Glucoindols was administered orally at a dosing volume of 10 mL/kg. The positive control atorvastatin (10 mg/kg) and vehicle (0.5% methylcellulose) were each administered orally at a dosing volume of 10 mL/kg. […]
After fasting overnight, blood samples were obtained from the retro-orbital sinus of each animal 5 min before initial test substance and/or vehicle administration (pre-treatment) and 24 hours after dosing on days 14 and 28 (post-treatment). The serum total cholesterol (TC), low density lipoprotein cholesterol (LDL-C), high density lipoprotein cholesterol (HDL-C) and triglycerides (TG) were determined by an enzymatic method (Wako total cholesterol, LDL-C, HDL-C & TG diagnostic kit and Toshiba Automatic Analyzer Model TAB-120FR).

[5] = read-out: Inhibitory effect on PDE4 IC-50
[6] = read-out: Inhibitory effect on PDE5 IC-50
[7] = read-out: Inhibitory effect on IKK-β IC-50

T1 sequence (P27815 1-647 isoform P27815-4): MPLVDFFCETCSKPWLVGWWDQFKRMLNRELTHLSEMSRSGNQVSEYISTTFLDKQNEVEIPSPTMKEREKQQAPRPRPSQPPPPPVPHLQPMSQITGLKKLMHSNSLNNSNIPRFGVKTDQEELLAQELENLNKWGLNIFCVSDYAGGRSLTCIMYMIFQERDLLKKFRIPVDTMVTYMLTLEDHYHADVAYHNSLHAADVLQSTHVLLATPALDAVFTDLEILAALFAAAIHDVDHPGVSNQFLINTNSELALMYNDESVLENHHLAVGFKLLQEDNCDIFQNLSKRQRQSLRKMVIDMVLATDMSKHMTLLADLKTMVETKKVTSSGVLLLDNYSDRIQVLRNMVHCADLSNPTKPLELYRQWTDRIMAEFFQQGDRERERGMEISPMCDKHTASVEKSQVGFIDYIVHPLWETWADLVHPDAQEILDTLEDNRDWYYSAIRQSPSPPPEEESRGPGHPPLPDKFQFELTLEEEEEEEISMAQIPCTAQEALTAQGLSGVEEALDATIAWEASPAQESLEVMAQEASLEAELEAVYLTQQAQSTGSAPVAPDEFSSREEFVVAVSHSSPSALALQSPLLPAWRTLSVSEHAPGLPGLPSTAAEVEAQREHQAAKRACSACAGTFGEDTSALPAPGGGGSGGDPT

## CN(C)C(=N)N=C(N)N [metformin]
[1]
  serum glucose levels relative to vehicle control: significant decrease

## O=C(O)Cc1cn([C@@H]2O[C@H](CO)[C@@H](O)[C@H](O)[C@H]2O)c2ccccc12 [Glucoindol A, 2-(1-((2R,3R,4S,5S,6R)-3,4,5-trihydroxy-6-(hydroxymethyl)tetrahydro-2H-pyran-2-yl)-1H-indol-3-yl)acetic acid]
[2]; [5]
  IC50: 86.1 µM

## COC(=O)Cc1cn([C@@H]2O[C@H](CO)[C@@H](O)[C@H](O)[C@H]2O)c2ccccc12 [Glucoindol B, methyl 2-(1-((2R,3R,4S,5S,6R)-3,4,5-trihydroxy-6-(hydroxymethyl)tetrahydro-2H-pyran-2-yl)-1H-indol-3-yl)acetate]
[2]; [5]
  IC50: 45.6 µM

## N#C/C(=C\CO[C@@H]1O[C@H](CO)[C@@H](O)[C@H](O)[C@H]1O)COC(=O)/C=C/c1ccc(O)c(O)c1 [Ribetril A, (E)-(E)-2-cyano-4-(((2R,3R,4S,5S,6R)-3,4,5-trihydroxy-6-(hydroxymethyl)tetrahydro-2H-pyran-2-yl)oxy)but-2-en-1-yl 3-(3,4-dihydroxyphenyl)acrylate]
[3]; [6]
  IC50: 2.1 µM
[3]; vs Ribetril B
  times lower IC-50 as compared to Ribetril B (PDE5): 3 times
[3]; vs Ribetril C
  times lower IC-50 as compared to Ribetril C (PDE5): 8 times
IkappaB kinase β (IKK-β); [7]
  IC50: 0.13 µM
IkappaB kinase β (IKK-β); vs Ribetril B
  times lower IC-50 as compared to Ribetril B (IKK-β): 48 times
IkappaB kinase β (IKK-β); vs Ribetril C
  times lower IC-50 as compared to Ribetril C (IKK-β): 118 times
[2]; [5]
  IC50: 2.95 µM
[2]; vs Ribetril B
  times lower IC-50 as compared to Ribetril B (PDE4): 5 times
[2]; vs Ribetril C
  times lower IC-50 as compared to Ribetril C (PDE4): 20 times

## COc1cc(/C=C/C(=O)OC/C(C#N)=C/CO[C@@H]2O[C@H](CO)[C@@H](O)[C@H](O)[C@H]2O)ccc1O [Ribetril B, (E)-(E)-2-cyano-4-(beta-D-glucopyranosyloxy)but-2-en-1-yl 3-(4-hydroxy-3-methoxyphenyl)acrylate]
[3]; [6]
  IC50: 5.4 µM
IkappaB kinase β (IKK-β); [7]
  IC50: 6.3 µM
[2]; [5]
  IC50: 14 µM

## N#C/C(=C\CO[C@@H]1O[C@H](CO)[C@@H](O)[C@H](O)[C@H]1O)COC(=O)/C=C/c1ccc(O)cc1 [Ribetril C, (E)-(E)-2-cyano-4-(beta-D-glucopyranosyloxy)but-2-en-1-yl 3-(4-hydroxyphenyl)acrylate]
[3]; [6]
  IC50: 17.2 µM
IkappaB kinase β (IKK-β); [7]
  IC50: 15.3 µM
[2]; [5]
  IC50: 59.7 µM

## COc1cc(C(=O)OC/C(C#N)=C/CO[C@@H]2O[C@H](CO)[C@@H](O)[C@H](O)[C@H]2O)ccc1O [Ribetril D, (E)-2-cyano-4-(beta-D-glucopyranosyloxy)but-2-en-1-yl 4-hydroxy-3-methoxybenzoate]
[3]
  IC50: < 0.04 µM
IkappaB kinase β (IKK-β)
  IC50: 0.037 µM
[2]
  IC50: 0.23 µM

## CC(C)c1c(C(=O)Nc2ccccc2)c(-c2ccccc2)c(-c2ccc(F)cc2)n1CC[C@@H](O)C[C@@H](O)CC(=O)O [atorvastatin]
[4]
  triglyceride reduction: did not significantly reduce triglycerides

## N#C/C(=C\CO[C@@H]1O[C@H](CO)[C@@H](O)[C@H](O)[C@H]1O)COC(=O)c1ccc(O)cc1 [Ribetril E, (E)-2-cyano-4-(beta-D-glucopyranosyloxy)but-2-en-1-yl 4-hydroxybenzoate]
[3]; [6]
  IC50: 3.4 µM
IkappaB kinase β (IKK-β); [7]
  IC50: 1.9 µM
[2]; [5]
  IC50: 3.5 µM
